doi:10.1101/2025.10.22.684062 (bioRxiv, 2025)
pIC50: −log10 of the molar value. Peptide text beside a SMILES is read from it.

Tests used:
[1] = tested on: Vemurafenib-sensitive A375 cell line; experiment: Cell viability assay, Vemurafenib-sensitive (parental) A375 cells; type: cell-based; conditions: Homo sapiens, A-375
Protocol: (§1) Viability was determined using the CCK-8 reagent (APExBIO). Absorbance was measured at 450 nm using a Varioskan LUX reader.
(§2) Vemurafenib-resistant A375 cells were generated following established protocol. Parental cells were treated with 100 nM Vemurafenib for 2 weeks, followed by stepwise doubling of drug concentration every 2 weeks up to 3.2 μM. Surviving cells in maintenance culture containing 2 μM drug was used for downstream studies.

[2] = tested on: Vemurafenib-resistant A375 cell line; experiment: Cell viability assay, Vemurafenib-resistant A375 cells; type: cell-based, human
Protocol: as §1, §2

[3] = In vivo plasma pharmacokinetics; conditions: ip, male C57BL/6 mouse, 5mg/kg intraperitoneal, LC-MS/MS
Protocol: Blood samples (100 μl) were obtained at 0, 0.25, 0.5, 1, 2, 4, 8, and 24 hours via tail vein bleeds.

[4] = tested on: B16-F10 melanoma tumors; experiment: B16-F10 syngeneic mouse tumor model; type: in vivo, C57BL/6 mice; conditions: CST 10 mg/kg i.p. three times per week, tumor-bearing mice, n=9
Protocol: Age-matched male and female C57BL/6 mice (7–9 weeks, n = 9) were subcutaneously injected with 5 × 10^4 B16-F10 cells in 100 μL PBS. […] Tumor dimensions were measured with calipers, and volume was calculated using the formula V = (length × width^2)/2. Mice were euthanized 22 days post-inoculation. All procedures were approved by the IACUC of UCSD and the VA San Diego Healthcare System and conformed to NIH guidelines.
Tumors were fixed, paraffin-embedded, and sectioned (5 μm). Hematoxylin and eosin staining was performed at the La Jolla Institute for Immunology. Immunohistochemistry was carried out using the Super Sensitive™ M Polymer-HRP Kit (Biogenex). After deparaffinization, antigen retrieval was performed using Histo VT (Nacalai) at 90°C for 20 min. Sections were incubated overnight at 4°C with anti–Ki-67 (Abcam) or anti-CST (gift from Angelo Corti) at 1:100 dilution. Detection was performed with DAB and counterstained with hematoxylin. Slides were dehydrated and mounted in DPX. […]
Apoptotic nuclei were detected in tumor sections using the CF®594 TUNEL Assay Kit (Biotium). […] Fluorescence images were obtained using a Keyence microscope.
Tumor lysates were prepared in RIPA buffer containing protease inhibitors (Thermo Fisher). […] HRP-conjugated secondary antibodies (Cell Signaling Technology) were used, and signals were detected by chemiluminescence. […]

| SMILES | pIC50 [1] | pIC50 ([2]; Homo sapiens, vemurafenib-resistant A-375, Vemurafenib-resistant A375 cells) | fold increase of IC50, resistant versus parental A375 cells ([2]; resistant vs parental A375) [fold] | half-life ([3]; read-out: t1/2 (half-life) (converted)) [h] | Cmax ([3]; tail vein bleeds 0-24 hours, read-out: Cmax (maximum concentration)) [ng/mL] | body weight and liver histology [4] |
| --- | --- | --- | --- | --- | --- | --- |
| CCCS(=O)(=O)Nc1ccc(F)c(C(=O)c2c[nH]c3ncc(-c4ccc(Cl)cc4)cc23)c1F [Vemurafenib] | 6.64 | 5.84 | > 6 | – | – | – |
| CSCC[C@H](NC(=O)[C@H](CO)NC(=O)[C@@H](N)CO)C(=O)N[C@@H](CCCCN)C(=O)N[C@@H](CC(C)C)C(=O)N[C@@H](CO)C(=O)N[C@@H](Cc1ccccc1)C(=O)N[C@@H](CCCNC(=N)N)C(=O)N[C@@H](C)C(=O)N[C@@H](CCCNC(=N)N)C(=O)N[C@@H](C)C(=O)N[C@@H](Cc1ccc(O)cc1)C(=O)NCC(=O)N[C@@H](Cc1ccccc1)C(=O)N[C@@H](CCCNC(=N)N)C(=O)NCC(=O)N1CCC[C@H]1C(=O)NCC(=O)N1CCC[C@H]1C(=O)N[C@@H](CCC(N)=O)C(=O)N[C@@H](CC(C)C)C(=O)O [CST, Catestatin] (H-SSMKLSFRARAYGFRGPGPQL-OH) | – | – | – | 1.38 | 148 | No major changes in body weight or liver histology |
